Laboratory results taken from ChEMBL document CHEMBL6120996, “Discovery and optimization of 1,2,4-triazole derivatives as novel ferroptosis inhibitors” (Eur J Med Chem, 2025).
Activity calls are given as the source filed them. The calls are words filed in the database; no cut-off is given here.

How the values were obtained:
[1] = tested on: 786-0; experiment: Inhibition of RSL3-induced ferroptosis in human 786-0 cells assessed as cell protection by assessing cell morphology at 1 uM incubated for 24 hrs; assay type: functional, cell-based
[2] = tested on: 786-0; experiment: Inhibition of RSL3-induced ferroptosis in human 786-0 cells assessed as cell viability incubated for 24 hrs by CellTiter-LumiTM assay; assay type: functional, cell-based; conditions: 786-0, 24 h
[3] = Suppression of autoxidation of liposomes egg ( unknown origin) phosphatidylcholine lipids as substrate at 0.1 to 2.5 uM incubated for 5 min by C11-BODIPY 581/591 dye based fluorescent assay; assay type: functional; conditions: dose 0.1-2.5 µM
[4] = Antioxidant activity assessed as free radical scavenging activity at 50 uM incubated for 30 mins in dark by DPPH assay relative to control; assay type: functional
[5] = tested on: HT-1080; experiment: Anti-ferroptotic activity in human GPX4 knockout HT-1080 cells assessed as cell viability at 1 uM incubated for 24 hrs by CellTiter-LumiTM plus luminescent cell viability assay; assay type: functional, cell-based
[6] = tested on: 786-0; experiment: Inhibition of RSL3 induced lipid-ROS accumulation in human 786-0 cells assessed as fast elimination at 1 uM measured after 0.25 to 2.5 hrs by C11-BODIPY 581/591 staining coupled with flow cytometry analysis; assay type: functional, cell-based; conditions: time 0.25-2.5 hrs
[7] = tested on: SK-HEP1; experiment: Inhibition of RSL3 induced lipid-ROS accumulation in human SK-HEP1 cells at 1 uM incubated for 0.5 hrs by C11-BODIPY 581/591 staining coupled with flow cytometry analysis; assay type: functional, cell-based
[8] = tested on: SK-HEP1; experiment: Inhibition of RSL3 induced lipid-ROS accumulation in human SK-HEP1 cells at 1 uM incubated for 2.5 hrs by C11-BODIPY 581/591 staining coupled with flow cytometry analysis; assay type: functional, cell-based
[9] = tested on: 786-0; experiment: Inhibition of RSL3 induced lipid-ROS accumulation in human 786-0 cells incubated for 2.5 hrs by C11-BODIPY 581/591 staining coupled with flow cytometry analysis; assay type: functional, cell-based; conditions: dose 0.1-1 µM
[10] = tested on: 786-0; experiment: Inhibition of RSL3-induced ferroptosis in human 786-0 cells assessed as cell viability by assessing cell morphology incubated for 24 hrs by CellTiter-LumiTM plus luminescent cell viability assay; assay type: functional, cell-based; conditions: 786-0, 24 h

SMILES	EC50 [2]	Activity [1]	also measured
Cc1c(C)c2c(c(C)c1O)CCC(C)(C(=O)O)O2 (stereo unspecified)			Activity [3]: Dose-dependent-effect; Activity [4]: Active
COc1cc(COc2c(OC)cccc2C2N(c3ccccc3)N=C(C(C)=O)N2c2ccc(N(C)C)cc2)cc(OC)c1OC (stereo unspecified)	170 nM		
COc1cccc(C2N(c3ccccc3)N=C(C(C)=O)N2c2ccc(N(C)C)cc2)c1OCc1cc(Cl)cc(Cl)c1 (stereo unspecified)	3710 nM	Active	
CCOC(=O)c1ccc(NC2CCCCC2)c(N)c1			Activity [5]: Active; inhibition [6]: Active; inhibition [7]: Active; Activity [4]: Active; inhibition [8]: Active; inhibition [9]: Dose-dependent-effect; EC50 [10]: 67 nM
CC(=O)C1=NN(c2ccccc2)C(c2ccc(C)cc2OCc2ccc(Cl)cc2Cl)N1c1ccc(N(C)C)cc1 (stereo unspecified)	710 nM	Active	
CC(=O)C1=NN(c2ccccc2)C(c2ccccc2OCc2ccc(Cl)cc2Cl)N1c1ccc(N(C)C)cc1 (stereo unspecified)	390 nM	Active	
COc1cccc(C2N(c3ccccc3)N=C(C(C)=O)N2c2ccc(N(C)C)cc2)c1OCc1cccc2ccccc12 (stereo unspecified)	190 nM	Active	
Clc1cccc(CNC2=Nc3ccccc3NC23CCNCC3)c1			inhibition [7]: Active; Activity [4]: Active; inhibition [8]: Active

Further lines, with some results ahead:

EC50 [2]	SMILES	Activity [1]	also measured
150 nM	COc1cccc(C2N(c3ccccc3)N=C(C(C)=O)N2c2ccc(N(C)C)cc2)c1OCc1ccccc1Cl (stereo unspecified)	Active	
100 nM	COc1cccc(C2N(c3ccccc3)N=C(C(C)=O)N2c2ccc(N(C)C)cc2)c1OCc1ccc(Br)cc1 (stereo unspecified)	Active	
300 nM	COc1ccc(COc2c(OC)cccc2C2N(c3ccccc3)N=C(C(C)=O)N2c2ccc(N(C)C)cc2)cc1OC (stereo unspecified)		
120 nM	COc1cccc(C2N(c3ccccc3)N=C(C(C)=O)N2c2ccc(N(C)C)cc2)c1OCc1c(F)cccc1F (stereo unspecified)	Active	
140 nM	COc1cccc(C2N(c3ccccc3)N=C(C(C)=O)N2c2ccc(N(C)C)cc2)c1OCc1ccc(F)cc1 (stereo unspecified)	Active	
150 nM	COc1cccc(C2N(c3ccccc3)N=C(C(C)=O)N2c2ccc(N(C)C)cc2)c1OCc1c(C)cccc1C (stereo unspecified)	Active	
260 nM	COc1cccc(C2N(c3ccccc3)N=C(C(C)=O)N2c2ccc(N(C)C)cc2)c1OCc1ccc(Cl)cc1Cl (stereo unspecified)	Active	
150 nM	COc1cccc(C2N(c3ccccc3)N=C(C(C)=O)N2c2ccc(N(C)C)cc2)c1OCc1ccccc1C#N (stereo unspecified)	Active	
